Assay results reported in BindingDB's records for doi:10.1016/j.bmc.2008.03.004 (Florida Atlantic University, 2009).

Molecular target: Collagenase 3 (Homo sapiens, UniProt P45452)
Assay: Inhibition of human recombinant MMP13 expressed in Escherichia coli

COc1cc(-n2nc(C)c3c2OC(=N)C(C#N)C3c2ccccc2)c(Cl)c(Br)c1O (stereo unspecified) [6-amino-1-(3-bromo-2-chloro-4-hydroxy-5-methoxyphenyl)-3-methyl-4-phenyl-1,4-dihydropyrano[2,3-c]pyrazole-5-carbonitrile]
IC50: > 40 µM
